How the values were obtained:
full-length mouse PXR = biological target: T1, full-length mouse PXR (Mus musculus, UniProt O54915); experiment: Full-length mouse PXR reporter assay with rat cyp3a regulatory element in CV-1 cells; assay type: cell-based; settings: 10 μM, FIG. 3(b)
T1 sequence (O54915 1-431): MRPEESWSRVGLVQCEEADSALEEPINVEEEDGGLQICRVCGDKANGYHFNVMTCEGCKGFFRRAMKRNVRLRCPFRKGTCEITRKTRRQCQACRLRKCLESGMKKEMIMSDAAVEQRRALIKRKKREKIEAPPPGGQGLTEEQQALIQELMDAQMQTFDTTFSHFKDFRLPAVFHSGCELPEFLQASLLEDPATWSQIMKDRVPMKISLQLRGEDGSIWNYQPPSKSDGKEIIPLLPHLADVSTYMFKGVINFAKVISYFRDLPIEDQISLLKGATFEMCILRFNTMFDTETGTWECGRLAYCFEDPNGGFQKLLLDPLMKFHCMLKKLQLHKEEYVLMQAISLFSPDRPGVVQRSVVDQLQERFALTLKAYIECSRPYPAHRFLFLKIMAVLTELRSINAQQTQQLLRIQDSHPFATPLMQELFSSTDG
Method: (§1) CV-1 cells were transiently transfected with a GAL-mouse PXR expression vector, a GAL4 reporter construct, and a β-galactosidase vector as an internal control. Where noted, the bile acid transporter NTCP was added to the transfection to promote the transport of membrane-impermeable bile acids. Transfected cells were exposed to the indicated compounds (10 μM each), and fold activation was determined using luciferase and β-galactosidase enzyme activity assays. PCN refers to pregnenolone-16α-carbonitrile which is an effective agonist to mouse PXR. […] The transfected CV-1 cells were treated with multiple concentrations of each sterol. Error bars in this figure and subsequent figures represent the standard error of the mean (SEM) from representative experiments. In some cases, the error bars are not visible because they are negligible relative to the scale of the figure
To further confirm that 5β-cholestane-3α, 7α, 12α-triol and 5β-cholestan-3α, 7α, 12α, 25-tetrol activate mouse PXR, the effect of these compounds on full-length mouse PXR was examined using a reporter construct containing a regulatory element from the rat cyp3a gene that binds to the DNA binding domain of mouse PXR. Blumberg et al., SXR, a novel steroid and xenobioticsensing nuclear receptor, Gene & Dev. 12: 3195-3205 (1998).

mouse PXR = biological target: T2, mouse PXR (Mus musculus, UniProt O54915); experiment: GAL-mouse PXR luciferase reporter gene assay in transfected CV-1 cells; assay type: cell-based; settings: for fold activation of GAL-mouse PXR / activation of GAL-mouse PXR (in words): 10 μM; for activation of GAL-mouse PXR (in words): CV-1 cells, FIG. 3(a), FIG. 8(a)
T2 sequence (O54915 104-431): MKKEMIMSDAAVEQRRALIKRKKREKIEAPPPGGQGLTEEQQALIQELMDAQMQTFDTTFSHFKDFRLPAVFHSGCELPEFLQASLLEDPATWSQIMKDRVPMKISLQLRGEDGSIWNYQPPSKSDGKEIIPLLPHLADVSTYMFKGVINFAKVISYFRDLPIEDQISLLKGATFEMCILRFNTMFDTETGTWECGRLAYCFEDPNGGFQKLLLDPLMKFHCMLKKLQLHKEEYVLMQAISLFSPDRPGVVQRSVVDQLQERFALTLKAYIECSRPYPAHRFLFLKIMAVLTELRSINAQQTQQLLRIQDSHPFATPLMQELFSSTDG
Method: as §1, with “assays.” for “assays. PCN refers to pregnenolone-16α-carbonitrile which is an effective agonist to mouse PXR.”, “experiments.” for “experiments. In some cases, the error bars are not visible because they are negligible relative to the scale of the figure”
It is questioned whether β-cholestane-3α, 7α, 12α-triol (Triol) levels were elevated in whole liver extracts from CYP27 −/− mice. To show the level of 5β-cholestane-3α, 7α, 12α-triol in mouse liver extract, wild-type or CYP27 −/−mouse liver tissue (0.5 g) was extracted with 7.5 ml of ethyl acetate/methanol (2:1, vol/vol) along with 5β-cholestane-3β,5α,6β-triol (25 μg) as an internal control for extraction efficiency. […] The extraction was repeated three times, and the organic fraction was pooled and evaporated. To remove the vast excess of cholesterol that interferes with subsequent gas chromatography-mass spectroscopy analysis, the evaporated residue was dissolved in 0.5 ml of chloroform/acetone (35:25, vol/vol) and applied to a Bond Elut SI cartridge (Varian, 500 mg). Cholesterol was removed by washing with 6 ml of chloroform/acetone (35:25, vol/vol), and sterols were eluted with 7 ml of chloroform/acetone/methanol (35:25:20, vol/vol/vol). The sterol fraction was evaporated and dissolved in acetonitrile, and a portion was silylated with N,O-bis(trimethylsilyl)-trifluoroacetamide containing 1% trimethylchlorosilane (Pierce). The silylated material was analyzed by using a Shimadzu model GC-17A gas chromatograph with a QP5000 mass spectral detector and a Hewlett-Packard Ultra 2 (cross-linked-siloxane) column. The injector port was kept at 250° C., interface temperature was kept at 280° C., and oven temperature was kept at 50° C. followed by a gradient of 30° C. min^−1 up to 300° C. The electron impact ionization source was at 70 eV. 5β-cholestane-3α, 7α, 12α-triol levels were determined by comparison to a standard curve. For transfection studies, the sterol fraction was dissolved in DMSO and added to the cell-culture media. containing DMEM with 10% delipidated FBS.

CYP3A4 = settings: reported by Furster & Wikvall 1999; read-out: Michaelis constant (Km) as a CYP3A4 substrate; cited from earlier work
mice = experiment: Tribromoethanol-induced sleep test; assay type: in vivo, mouse; settings: i.p. 0.35 mg/g
Text: Wild type and cyp27-null mice received an i.p. injection of tribromoethanol, and their individual sleep times are plotted. Wild type mice are represented by squares and CYP27-null mice (CYP27 −/−) are represented by circles. Wild type male, n=6; cyp27-1-male, n=5; Wild type female, n=6; cyp27-1-female, n=6. **, P<0.01; ***, P<0.001.
Because PXR is a master regulator of small-molecule clearance, continuous activation of PXR in CYP27-null mice should produce a physiologic state of enhanced resistance to endogenous and exogenous toxins. To test this in a physiological setting, mice received an i.p. injection of the anesthetic agent tribromoethanol (0.35 mg/g of body weight). Drug-induced anesthesia was measured until the animals had regained sufficient consciousness to fully right themselves. […] Thus, the tribromoethanol-induced sleep test provides a direct and quantitative measure of hepatic PXR activity in live animals. […] In female mice, the difference was even more significant: 35.8±1.6 min for CYP27-null mice compared with 49.6±2.0 min for WT (P<0.001). […] When 5β-cholestane-3α, 7α, 12α-triol itself is accumulating to pathological levels, the ability of this sterol to activate cyp3a11 (FIG. 5) becomes highly significant as CYP3A establishes an alternate or salvage pathway for the elimination of excess 5β-cholestane-3α, 7α, 12α-triol (FIG. 1). […]

[1] = biological target: T3, human PXR ligand binding domain (Homo sapiens, UniProt O75469); experiment: In vitro ligand displacement assay with [3H]SR12813; settings: 37.5 nM [3H]SR12813; 5 μM hyperforin, 30 μM Triol, 30 μM Tetrol; FIG. 4
T3 sequence (O75469 107-434): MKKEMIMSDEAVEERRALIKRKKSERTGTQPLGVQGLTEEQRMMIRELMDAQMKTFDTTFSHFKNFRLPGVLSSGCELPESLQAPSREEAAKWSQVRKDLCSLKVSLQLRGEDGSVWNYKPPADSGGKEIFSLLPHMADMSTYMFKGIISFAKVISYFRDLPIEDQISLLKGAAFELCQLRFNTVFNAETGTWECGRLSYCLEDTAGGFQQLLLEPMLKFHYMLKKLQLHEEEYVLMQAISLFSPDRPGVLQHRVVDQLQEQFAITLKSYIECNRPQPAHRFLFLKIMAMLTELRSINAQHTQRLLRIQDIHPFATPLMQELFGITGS
Method: The amount of [^3H]SR12813 associated with human PXR is expressed in cpm.
To determine whether a molecule or compound interacts directly with a PXR or is a PXR ligand, an in vitro ligand displacement assay is commonly used. […] In the ligand displacement assay, the ligand binding domain of a PXR is synthesized or expressed and purified. A known PXR ligand is radio-labeled and incubated with the purified ligand binding domain of the PXR. A molecule or compound suspected to be a PXR ligand is then added into the incubated mixture. Radioactivity reading is taken using a scintillation counter. If the molecule or compound competes with the known PXR ligand for the ligand binding domain of the PXR, the molecule or compound is expected to displace some of the radio-labeled known PXR agonist and reduce the radioactivity reading. Accordingly, the reduction of radioactivity reading indicates whether the molecule or compound is a PXR ligand and the extent to which the molecule or compound competes with the known PXR ligand.
An in vitro ligand displacement assay was used to determine whether 5β-cholestane-3α, 7α, 12α-triol interacts directly with the ligand binding domain of PXR. Because radiolabeled [^3H]SR12813 are available for human PXR but not mouse PXR, human PXR was used to examine whether 5β-cholestane-3α, 7α, 12α-triol could compete for binding of human PXR to a tritiated SR12813. […]

CYP3A = settings: cited from earlier work

CC(C)CCC[C@@H](C)[C@H]1CC[C@H]2[C@@H]3[C@H](O)C[C@@H]4C[C@H](O)CC[C@]4(C)[C@H]3C[C@H](O)[C@]12C [5β-cholestane-3α, 7α, 12α-triol]
activation of full-length mouse PXR (in words) (full-length mouse PXR): activated full-length mouse PXR | EC50 (mouse PXR): ≥ 3 µM | fold activation of GAL-mouse PXR (mouse PXR): 31 fold | Km (CYP3A4): 6 µM

OCC(Br)(Br)Br [tribromoethanol]
time to awakening after tribromoethanol (mean±SEM) (mice; female CYP27-null mice): 35.8 ± 1.6 min | time to awakening after tribromoethanol (mean±SEM) (mice; female WT mice): 49.6 ± 2.0 min | time to awakening after tribromoethanol (mean±SEM) (mice; male CYP27-null mice): 30.6 ± 2.9 min | time to awakening after tribromoethanol (mean±SEM) (mice; male WT mice): 42.2 ± 1.9 min

CC(C)CCC[C@@H](C)[C@H]1CC[C@H]2[C@@H]3C[C@@H](O)[C@@]4(O)C[C@@H](O)CC[C@]4(C)[C@H]3CC[C@]12C [5β-cholestane-3β,5α,6β-triol]
activation of GAL-mouse PXR (in words) (mouse PXR): does not activate mouse PXR

CC(CCC[C@@H](C)[C@H]1CC[C@H]2[C@@H]3[C@H](O)C[C@@H]4C[C@H](O)CC[C@]4(C)[C@H]3C[C@H](O)[C@]12C)C(=O)O (stereo partly drawn) [5β-cholestanoic acid-3α,7α,12α-triol]
displacement of [3H]SR12813 from human PXR (in words) [1]: failed to displace | activation of GAL-mouse PXR (in words) (mouse PXR): failed to activate mouse PXR

COc1cc2c(cc1O)CCN[C@]21CS[C@@H]2c3c(OC(C)=O)c(C)c4c(c3[C@H](COC1=O)N1[C@@H]2[C@H]2c3c(cc(C)c(OC)c3O)C[C@@H]([C@@H]1O)N2C)OCO4 [ET-743, Ecteinascidin-743]
inhibition of the induction of CYP3A by SR12813 (in words) (CYP3A): completely inhibits

C[C@H](CCCC(C)(C)O)[C@H]1CC[C@H]2[C@@H]3[C@H](O)C[C@@H]4C[C@H](O)CC[C@]4(C)[C@H]3C[C@H](O)[C@]12C [5β-cholestane-3α, 7α, 12α, 25-tetrol]
fold activation of GAL-mouse PXR (mouse PXR): 16 fold

C[C@H](CCC(=O)O)[C@H]1CC[C@H]2[C@@H]3[C@H](O)C[C@@H]4C[C@H](O)CC[C@]4(C)[C@H]3CC[C@]12C [chenodeoxycholic acid]
activation of GAL-mouse PXR (in words) (mouse PXR): failed to activate mouse PXR
